Holding throughout (type): cell-based
For test [1], the system named is Trypanosoma brucei Lister 427 VSG221 with APOL1 G2 recombinant protein. Put plainly: APOL1 G2 trypanosome cell rescue assay (Example B5). The following applies: Trypanosoma brucei, 20 h, read-out: APOL1 G2 Trypanosome Rescue EC50, Trypanosoma brucei Lister 427 VSG221 with APOL1 G2 recombinant protein, 20 hours, CellTiter-Glo; geometric mean of at least 2 assay runs; † = single assay run. In outline: (§1)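 Compounds in duplicate 2-fold, 11-point series with 0.4% DMSO final. Next, tag-free mature APOL1 variant protein went in from a 2 μg/mL solution, then trypanosomes to 250 per well. Plates incubated 20 h humidified at 37° C, equilibrated to room temperature, and CellTiter-Glo added for luminescence.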
Background: Cellular ATP, detected with luciferase, serves as a proxy for viable cell number.

Test [2] concerns Trypanosoma brucei Lister 427 VSG221 with APOL1 G0 recombinant protein. Put plainly: APOL1 G0 trypanosome cell rescue assay (Example B5). To be noted: Trypanosoma brucei, 20 h, read-out: APOL1 G0 Trypanosome Rescue EC50, Trypanosoma brucei Lister 427 VSG221 with APOL1 G0 recombinant protein, 20 hours, CellTiter-Glo; geometric mean of at least 2 assay runs; † = single assay run. In a few lines: as §1

Test [3] concerns HEK293 clonal cell line overexpressing APOL1 G1. Briefly: APOL1 G1 HEK293 cell rescue assay (Example B3). The following applies: Homo sapiens, HEK293, HEK293 clonal line overexpressing APOL1 G1; geometric mean of at least 2 runs; † = single run; ¥ = concentration at 50% rescue estimated (no sigmoidal curve). In outline:
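HEK293 clonal line overexpressing APOL1 G1; EC50 is half-maximal reversal of APOL1-induced cell death. Values are the geometric mean of ≥2 runs on separate days, each run the average of duplicate wells. Where no sigmoidal curve could be fitted, the concentration giving 50% rescue was estimated.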

Test [4] concerns Trypanosoma brucei Lister 427 VSG221 with APOL1 G1 recombinant protein. Briefly: APOL1 G1 trypanosome cell rescue assay (Example B5). To be noted: Trypanosoma brucei, 20 h, read-out: APOL1 G1 Trypanosome Rescue EC50, Trypanosoma brucei Lister 427 VSG221 with APOL1 G1 recombinant protein, 20 hours, CellTiter-Glo; geometric mean of at least 2 assay runs; † = single assay run. In a few lines:
as §1

The structures appear in SMILES notation.

The source of these data is US12344610B2, “APOL1 inhibitors and methods of use” (Maze Therapeutics, Inc., priority 2022, dated 2025).

By EC50 is commonly meant the concentration needed to bring the measured effect to its halfway point. On to `CS(=O)(=O)C1(c2ccc(OCCN3CCC4(CC3)C(=O)Nc3ccc(Cl)cc34)cc2)CCC1` [Compound 180, 5-chloro-1′-{2-[4-(1-methanesulfonylcyclobutyl)phenoxy]ethyl}-1,2-dihydrospiro[indole-3,4′-piperidin]-2-one], for which the EC50 in test [1] is 0.0133 µM; in test [2] it was 0.0352 µM; in test [3], 0.0749 µM; in test [4] it was 0.0477 µM.
On to `CS(=O)(=O)C1(c2ccc(OCCN3CCC4(CC3)C(=O)Nc3ccc(C#N)cc34)cc2)CCC1` [Compound 181, 1′-{2-[4-(1-methanesulfonylcyclobutyl)phenoxy]ethyl}-2-oxo-1,2-dihydrospiro[indole-3,4′-piperidine]-5-carbonitrile], for which the EC50 in test [1] was 0.0707 µM; in test [2] it was 0.158 µM; in test [3], 0.194 µM; in test [4] it was 0.232 µM.
For `CS(=O)(=O)C1(c2ccc(OCCN3CCC4(CC3)C(=O)Nc3ccc(Cl)cc34)cc2)CC2(COC2)C1` [Compound 182, 5-chloro-1′-[2-(4-{6-methanesulfonyl-2-oxaspiro[3.3]heptan-6-yl}phenoxy)ethyl]-1,2-dihydrospiro[indole-3,4′-piperidin]-2-one], in that order: 0.138 µM, 0.401 µM, 0.225 µM and 0.481 µM.
For `CS(=O)(=O)C1(c2ccc(OCCN3CCC4(CC3)C(=O)N(CC(F)(F)F)c3ccc(C#N)cc34)cc2)COC1` [Compound 184, 1′-{2-[4-(3-methanesulfonyloxetan-3-yl)phenoxy]ethyl}-2-oxo-1-(2,2,2-trifluoroethyl)-1,2-dihydrospiro[indole-3,4′-piperidine]-5-carbonitrile], in that order: 0.585 µM, 1.6 µM, roughly 2.5 µM and 2.08 µM.
In the case of `CS(=O)(=O)C1(c2ccc(OCCN3CCC4(CC3)C(=O)N(CC(F)(F)F)c3ccc(Cl)cc34)cc2)COC1` [Compound 185, 5-chloro-1′-{2-[4-(3-methanesulfonyloxetan-3-yl)phenoxy]ethyl}-1-(2,2,2-trifluoroethyl)-1,2-dihydrospiro[indole-3,4′-piperidin]-2-one], the concentration for a half-maximal effect (EC50) in test [1] was 0.14 µM; in test [2], 0.31 µM; in test [3], 0.231 µM; in test [4] it was 0.479 µM.
On to `CS(=O)(=O)C1(c2ccc(OCCN3CCC4(CC3)C(=O)Nc3ccc(Cl)cc34)cc2)CCOCC1` [Compound 188, 5-chloro-1′-{2-[4-(4-methanesulfonyloxan-4-yl)phenoxy]ethyl}-1,2-dihydrospiro[indole-3,4′-piperidin]-2-one], for which the EC50 in test [1] was 0.0267 µM; in test [2], 0.071 µM; in test [3], 0.122 µM; in test [4] it was 0.0965 µM.
Turning to `CN1C(=O)C2(CCN(CCOc3cc(F)c(C4(S(C)(=O)=O)COC4)c(F)c3)CC2)c2cc(C#N)ccc21` [Compound 189, 1′-{2-[3,5-difluoro-4-(3-methanesulfonyloxetan-3-yl)phenoxy]ethyl}-1-methyl-2-oxo-1,2-dihydrospiro[indole-3,4′-piperidine]-5-carbonitrile], the EC50 in test [1] is 0.0614 µM; in test [2], 0.167 µM; in test [3], 0.148 µM; in test [4], 0.246 µM.
For `CC(C)(c1ccc(OCCN2CCC3(CC2)C(=O)Nc2ccc(C#N)cc23)cn1)S(C)(=O)=O` [Compound 191, 1′-(2-{[6-(2-methanesulfonylpropan-2-yl)pyridin-3-yl]oxy}ethyl)-2-oxo-1,2-dihydrospiro[indole-3,4′-piperidine]-5-carbonitrile], in that order: 0.104 µM, 0.251 µM, 0.283 µM and 0.304 µM.
